Series [1] addresses T1, recombinant human transglutaminase 2 (Homo sapiens, UniProt P21980).
T1 construct: purchased Zedira T022
T1 sequence (P21980 1-687): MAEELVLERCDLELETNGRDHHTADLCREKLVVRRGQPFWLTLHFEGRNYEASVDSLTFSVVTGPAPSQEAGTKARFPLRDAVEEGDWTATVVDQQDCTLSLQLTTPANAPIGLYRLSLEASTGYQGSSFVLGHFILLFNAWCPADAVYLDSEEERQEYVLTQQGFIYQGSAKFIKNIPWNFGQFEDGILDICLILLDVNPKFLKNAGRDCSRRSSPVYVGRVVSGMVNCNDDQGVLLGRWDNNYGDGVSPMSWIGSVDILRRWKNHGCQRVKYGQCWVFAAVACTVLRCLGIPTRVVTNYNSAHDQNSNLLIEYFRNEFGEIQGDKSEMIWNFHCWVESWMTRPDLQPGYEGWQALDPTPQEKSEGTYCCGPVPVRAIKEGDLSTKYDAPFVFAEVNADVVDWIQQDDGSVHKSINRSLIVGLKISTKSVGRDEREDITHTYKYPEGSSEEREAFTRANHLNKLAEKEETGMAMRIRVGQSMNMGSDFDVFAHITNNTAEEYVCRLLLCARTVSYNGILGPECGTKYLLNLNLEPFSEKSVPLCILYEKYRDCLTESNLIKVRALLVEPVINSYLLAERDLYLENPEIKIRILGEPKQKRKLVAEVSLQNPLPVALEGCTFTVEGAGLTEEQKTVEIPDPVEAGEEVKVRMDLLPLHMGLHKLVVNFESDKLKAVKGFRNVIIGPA
In words: Transglutaminase assay (dansylcadaverine incorporation into dimethylcasein, DCC-assay). The class given is biochemical. As to conditions: recombinant human TG2 10 nM, dansylcadaverine/dimethylcasein, 37° C. Summed up: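 IC50 derived from fluorescence slope between 20 and 30 min (λex 330 nm, λem 500 nm, 37 °C), expressed relative to a 2% DMSO control. Reaction: 10 nM recombinant human TG2, 4 μM dimethylcasein, 16.7 μM dansylcadaverine, 10 mM CaCl2 and glutathione, pH 8.0.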

Series [2] is described as follows: Log D shake flask method (octanol / PBS pH 7.4, HPLC). The class given is physicochemical. The settings on record: octanol/phosphate-buffered saline (PBS); octanol / PBS pH 7.4, shake flask. The method, then: In order to classify the inventive compounds according to their lipophilicity, Log D values (distribution coefficient) were determined by means of the well-established shake flask method, measuring the partition of a compound between an octanol and phosphate-buffered saline (PBS, pH 7.4) by HPLC.

Series [3] can be described thus: Caco-2 permeability assay (CacoReady kit). The class given is in vitro ADME. The settings on record: human. In short, it runs like this: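 Compounds are tested on pre-formed Caco-2 barriers supplied as a ready-to-use kit, following the kit protocol, and the Papp value is derived to estimate intestinal absorption.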
(In general: Caco-2 cells form a polarised layer with tight junctions and transporters.)

On to `COC(=O)/C=C/CC[C@H](NC(=O)c1oc2ccccc2c1C)C(=O)Nc1cccn(CC(=O)NC2C3CC4CC2CC(Cl)(C4)C3)c1=O` (stereo partly drawn) [III-40, (S,E)-methyl 7-(1-(2-(5-chloroadamantan-2-amino)-2-oxoethyl)-2-oxo-1,2-dihydropyridin-3-ylamino)-6-(3-methylbenzofuran-2-carboxamido)-7-oxohept-2-enoate], for which the IC50 – broadly, the concentration that inhibits the measured activity by half – in series [1] is less than 0.025 µM. Further, the pH-dependent lipophilicity (logD) (as a rule, lipophilicity at a set pH, counting ionised and neutral species) in series [2] fell in the range of 3 to 5. Moreover, the Papp (usually the rate of passage across a membrane or cell layer, normalised by area and donor concentration) in series [3] was in the range of 10 to 100 nm/s.
In the same order, the values of `COC(=O)/C=C/CC[C@H](NC(=O)c1oc2ccccc2c1C)C(=O)Nc1cccn(CC(=O)NC2C3CC4CC2CC(F)(C4)C3)c1=O` (stereo partly drawn) [III-39, (S,E)-methyl 7-(1-(2-(5-fluoroadamantan-2-amino)-2-oxoethyl)-2-oxo-1,2-dihydropyridin-3-ylamino)-6-(3-methylbenzofuran-2-carboxamido)-7-oxohept-2-enoate] are less than 0.025 µM, 3 to 5 and 10 to 100 nm/s.
For the molecule `COC(=O)/C=C/CC[C@H](NC(=O)c1nonc1N)C(=O)Nc1cccn(CC(=O)NC23CC(C2)C3)c1=O` [III-160, (S,E)-methyl 6-(4-amino-1,2,5-oxadiazole-3-carboxamido)-7-(1-(2-(bicyclo[1.1.1]pentan-1-ylamino)-2-oxoethyl)-2-oxo-1,2-dihydropyridin-3-ylamino)-7-oxohept-2-enoate], the IC50 in series [1] was 0.25 to 1.5 µM. For the same molecule, the logD in series [2] is less than 1. The apparent permeability (Papp) in series [3] was less than 10 nm/s.
For `COC(=O)/C=C/CC[C@H](NC(=O)c1oc2ccccc2c1C)C(=O)Nc1cccn(CC23CC4CC(CC(C4)C2)C3)c1=O` [III-79, (S,E)-methyl 7-(1-(1-adamantylmethyl)-2-oxo-1,2-dihydropyridin-3-ylamino)-6-(3-methylbenzofuran-2-carboxamido)-7-oxohept-2-enoate] the same measures were 0.25 to 1.5 µM, 3 to 5 and 10 to 100 nm/s.
For `CCc1c(C(=O)N[C@@H](CC/C=C/C(=O)NC2CCCC2)C(=O)Nc2cccn(CC(=O)NC34CC(C3)C4)c2=O)oc2ccccc12` [III-147, (S,E)-N7-(1-(2-(bicyclo[1.1.1]pentan-1-ylamino)-2-oxoethyl)-2-oxo-1,2-dihydropyridin-3-yl)-N1-cyclopentyl-6-(3-ethylbenzofuran-2-carboxamido)hept-2-enediamide] the same measures were 0.025 to 0.25 µM, 1 to 3 and 10 to 100 nm/s.
`COC(=O)/C=C/CC[C@H](NC(=O)c1cncn1C)C(=O)Nc1cccn(CC(=O)NC23CC4CC(C)(CC(C)(C4)C2)C3)c1=O` [III-88, (S,E)-methyl 7-(1-(2-(3,5-dimethyladamantane)-2-oxoethyl)-2-oxo-1,2-dihydropyridin-3-ylamino)-6-(1-methyl-1H-imidazole-5-carboxamido)-7-oxohept-2-enoate]: the IC50 in series [1] was less than 0.025 µM. The logD in series [2] lay in the range of 1 to 3. Further, in series [3], the apparent permeability (Papp) is less than 10 nm/s.
For `COC(=O)/C=C/CC[C@H](NC(=O)c1cc(Br)sc1Br)C(=O)Nc1cccn(CC(=O)NC2C3CC4CC(C3)CC2C4)c1=O` (stereo partly drawn) [III-16, (S,E)-methyl 6-(2,5-dibromothiophene-3-carboxamido)-7-(1-(2-(2-adamantylamino)-2-oxoethyl)-2-oxo-1,2-dihydropyridin-3-ylamino)-7-oxohept-2-enoate] the same measures were less than 0.025 µM, 3 to 5 and 10 to 100 nm/s.
With `COC(=O)/C=C/CC[C@H](NC(=O)c1csnn1)C(=O)Nc1cccn(CC(=O)NC23CC(C2)C3)c1=O` [III-169, (S,E)-methyl 7-(1-(2-(bicyclo[1.1.1]pentan-1-ylamino)-2-oxoethyl)-2-oxo-1,2-dihydropyridin-3-ylamino)-7-oxo-6-(1,2,3-thiadiazole-4-carboxamido)hept-2-enoate], the half-maximal inhibitory concentration (IC50) in series [1] is 0.025 to 0.25 µM. In addition, the pH-dependent lipophilicity (logD) in series [2] was less than 1. Further, the Papp in series [3] was less than 10 nm/s.
For `COC(=O)/C=C/CC[C@H](NC(=O)c1cccnc1)C(=O)Nc1cccn(CC(=O)NC2C3CC4CC(C3)CC2C4)c1=O` (stereo partly drawn) [III-83, (S,E)-methyl 7-(1-(2-(2-adamantylamino)-2-oxoethyl)-2-oxo-1,2-dihydropyridin-3-ylamino)-6-(nicotinamido)-7-oxohept-2-enoate], the IC50 in series [1] was less than 0.025 µM. Further, the logD in series [2] lay in the range of 3 to 5. This molecule also showed an apparent permeability (Papp) in series [3] of less than 10 nm/s.
With `COC(=O)/C=C/CC[C@H](NC(=O)c1cnnn1C)C(=O)Nc1cccn(CC(=O)NC2C3CC4CC(C3)CC2C4)c1=O` (stereo partly drawn) [III-22, (S,E)-methyl 7-(1-(2-(2-adamantylamino)-2-oxoethyl)-2-oxo-1,2-dihydropyridin-3-ylamino)-6-(1-methyl-1H-1,2,3-triazole-5-carboxamido)-7-oxohept-2-enoate], the concentration for half-maximal inhibition (IC50) in series [1] was less than 0.025 µM. Also, in series [2], the log distribution coefficient (logD) is 1 to 3. The same molecule came in with a Papp in series [3] of 10 to 100 nm/s.
As to `COC(=O)/C=C/CC[C@H](NC(=O)c1sc(C(F)(F)F)nc1C)C(=O)Nc1cccn(CC(=O)N[C@@H]2C[C@@H]3CC[C@H]2C3)c1=O` [III-125, (S,E)-methyl 7-(1-(2-((1S,2R,4R)-bicyclo[2.2.1]heptan-2-ylamino)-2-oxoethyl)-2-oxo-1,2-dihydropyridin-3-ylamino)-6-(4-methyl-2-(trifluoromethyl)thiazole-5-carboxamido)-7-oxohept-2-enoate], the half-inhibitory concentration (IC50) in series [1] was less than 0.025 µM. The molecule also yielded a logD in series [2] of 1 to 3. This molecule also gave an apparent permeability (Papp) in series [3] of 10 to 100 nm/s.
As for `COC(=O)/C=C/CC[C@H](NC(=O)c1oc2ccccc2c1C)C(=O)Nc1cccn(CC(=O)N[C@H]2C[C@H]3CC[C@]2(C)C3(C)C)c1=O` [III-61, (S,E)-methyl 6-(3-methylbenzofuran-2-carboxamido)-7-oxo-7-(2-oxo-1-(2-oxo-2-((1R,2S,4R)-1,7,7-trimethylbicyclo[2.2.1]heptan-2-ylamino)ethyl)-1,2-dihydropyridin-3-ylamino)hept-2-enoate], in series [1], the IC50 is 0.025 to 0.25 µM. This molecule also came in with a logD in series [2] of 3 to 5. The apparent permeability coefficient (Papp) in series [3] is 10 to 100 nm/s.
For `COC(=O)/C=C/CC[C@H](NC(=O)c1snnc1C)C(=O)Nc1cccn(CC(=O)NC23CC4CC(C)(CC(C)(C4)C2)C3)c1=O` [III-112, (S,E)-methyl 7-(1-(2-(3,5-dimethyladamantane-1-amino)-2-oxoethyl)-2-oxo-1,2-dihydropyridin-3-ylamino)-6-(4-methyl-1,2,3-thiadiazole-5-carboxamido)-7-oxohept-2-enoate], in series [1], the IC50 was less than 0.025 µM. The pH-dependent lipophilicity (logD) in series [2] is 1 to 3. The Papp in series [3] was less than 10 nm/s.
For `COC(=O)/C=C/CC[C@H](NC(=O)c1oc2ccccc2c1C)C(=O)Nc1cccn(CC2C3CC4CC(C3)CC2C4)c1=O` (stereo partly drawn) [III-82, (S,E)-methyl 7-(1-(2-adamantylmethyl)-2-oxo-1,2-dihydropyridin-3-ylamino)-6-(3-methylbenzofuran-2-carboxamido)-7-oxohept-2-enoate] the same measures were 0.25 to 1.5 µM, 3 to 5 and 10 to 100 nm/s.
In the case of `O=C(/C=C/CC[C@H](NC(=O)c1cc2ccccc2nn1)C(=O)Nc1cccn(CC(=O)NC23CC(C2)C3)c1=O)NC1CC1` [III-145, (S,E)-N7-(1-(2-(bicyclo[1.1.1]pentan-1-ylamino)-2-oxoethyl)-2-oxo-1,2-dihydropyridin-3-yl)-6-(cinnoline-3-carboxamido)-N1-cyclopropylhept-2-enediamide], in series [1], the IC50 was 0.025 to 0.25 µM. The molecule further yielded a logD in series [2] of less than 1. For the same molecule, the Papp in series [3] is less than 10 nm/s.
For the molecule `Cc1c(C(=O)N[C@@H](CC/C=C/C(=O)N(C)C)C(=O)Nc2cccn(CC(=O)NC34CC5CC(C)(CC(C)(C5)C3)C4)c2=O)oc2ccccc12` [III-77, (S,E)-N^7-(1-(2-(3,5-dimethyladamantan-1-amino)-2-oxoethyl)-2-oxo-1,2-dihydropyridin-3-yl)-N^1,N^1-dimethyl-6-(3-methylbenzofuran-2-carboxamido)hept-2-enediamide], in series [1], the half-inhibitory concentration (IC50) was 0.025 to 0.25 µM. In series [2], this molecule yielded a pH-dependent lipophilicity (logD) of 3 to 5. Further, the apparent permeability coefficient (Papp) in series [3] is 10 to 100 nm/s.
Turning to `C=CCNC(=O)/C=C/CC[C@H](NC(=O)c1ccc2cnccc2n1)C(=O)Nc1cccn(CC(=O)NC23CC(C2)C3)c1=O` [III-150, (S,E)-N1-allyl-N7-(1-(2-(bicyclo[1.1.1]pentan-1-ylamino)-2-oxoethyl)-2-oxo-1,2-dihydropyridin-3-yl)-6-(1,6-naphthyridine-2-carboxamido)hept-2-enediamide], in series [1], the IC50 is 0.025 to 0.25 µM. Further, the logD in series [2] was less than 1. Moreover, the Papp in series [3] is less than 10 nm/s.

These data come from patent US20240317708A1, “INHIBITORS OF TRANSGLUTAMINASES” (ZEDIRA GMBH, priority 2021, published 2024).
